# Assay results from patent US20250230138A1, “COMPOUNDS HAVING A T-STRUCTURE FORMED BY AT LEAST FOUR CYCLES FOR USE IN THE TREATMENT OF CANCER AND OTHER INDICATIONS” (TheRas, Inc., priority 2022, published 2025).
# Like-named read-outs stand apart in the source and are kept apart here.
# Assays:
# [1] = target: Cys242 in human PIK3CA (157-299) (Homo sapiens (Human), UniProt P42336); experiment: Covalent modification assay using MALDI-TOF MS; format: biochemical; details: 4 h reaction time point; 1 μM protein target, 1:5 protein to compound ratio (compounds 853-1279)
# Chain of Cys242 in human PIK3CA (157-299) (P42336 157-299): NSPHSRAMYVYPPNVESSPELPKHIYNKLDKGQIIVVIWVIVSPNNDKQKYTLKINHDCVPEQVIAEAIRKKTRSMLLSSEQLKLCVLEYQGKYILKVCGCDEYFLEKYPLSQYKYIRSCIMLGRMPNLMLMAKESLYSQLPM
# Method in brief: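 PIK3CA (157-299) at 3.33 μM or 1 μM in 20 mM HEPES, 150 mM NaCl, 2 mM MgCl2, pH 7.3 was incubated with compound (from 10 mM DMSO stocks) in the dark at room temperature for 15 min, 30 min, 2 h or 4 h. Linear-mode MALDI-TOF peak heights gave percent modification.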
# pAKT in BT474 cells = experiment: Cell-based pAKT HTRF assay in BT474 cells; details: BT474 cells, 4 hr incubation, Compounds 10-999, read-out: pAKT inhibition IC50 in BT474 cells
# Method in brief: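 Cells are seeded on day 1 and dosed on day 2 with a 9-point curve (3 μM top, 3-fold). After 4 hr they are lysed and the lysate is mixed with d2- and Eu Cryptate-labelled antibodies. HTRF is read after 4–24 h at room temperature.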
"IC50 (pAKT in BT474 cells; Homo sapiens, BT-474) [nM]",IC50 (pAKT in BT474 cells) [nM],Compound,% of modification [1]
< 100,–,"C=CC(=O)N1CCn2nc(-c3nc(-c4ccc(N(C)C)nc4)c4ccsc4c3-c3c(F)cc(F)cc3OCCO)cc2[C@@H]1C [Compound 957, 1-((S)-2-((S)-7-(2,4-difluoro-6-(2-hydroxyethoxy)phenyl)-4-(6-(dimethylamino)pyridin-3-yl)thieno[3,2-c]pyridin-6-yl)-4-methyl-6,7-dihydropyrazolo[1,5-a]pyrazin-5(4H)-yl)prop-2-en-1-one]",A (percent of modification of PIK3CA protein ≥75%)
–,< 100,C=CC(=O)N1CCn2nc(-c3nc(-c4ccnc(N(C)C)c4)c4ccsc4c3-c3c(F)cc(F)cc3OCCO)cc2C1C (stereo not shown) [Compound 959],A (percent of modification of PIK3CA protein ≥75%)
–,< 100,C=CC(=O)N1CCn2nc(-c3nc(-c4ccnc(N(C)C)c4)c4ccsc4c3-c3c(F)cc(F)cc3OCCO)cc2C1C (stereo not shown) [Compound 960],A (percent of modification of PIK3CA protein ≥75%)
–,100 to 1000,C=CC(=O)N1CCn2nc(-c3nc(-c4cnc5c(c4)CNC5=O)c4ccsc4c3-c3c(F)cc(F)cc3OCCO)cc2C1C (stereo not shown) [Compound 961],A (percent of modification of PIK3CA protein ≥75%)
–,< 100,C=CC(=O)N1CCc2ncc(-c3nc(-c4ccc5c(c4)CNC(=O)C5)c4ccsc4c3-c3c(F)cc(F)cc3OCCOC)cc2C1 [Compound 963],A (percent of modification of PIK3CA protein ≥75%)
< 100,–,"C=CC(=O)N1Cc2cc(-c3nc(-n4ccccc4=O)c4ccsc4c3-c3c(F)cc(F)cc3OCCOC)nn2C[C@H]1C [Compound 964, 1-[7-[2,4-difluoro-6-(2-methoxyethoxy)phenyl]-6-[(6R)-6-methyl-5-prop-2-enoyl-6,7-dihydro-4H-pyrazolo[1,5-a]pyrazin-2-1]thieno[3,2-c]pyridin-4-yl]pyridin-2-one]",A (percent of modification of PIK3CA protein ≥75%)
–,100 to 1000,C=CC(=O)N1CCn2nc(-c3nc(-c4ccnc(N(C)C)c4)c4ccsc4c3-c3c(F)cc(F)cc3OCCOC)cc2[C@@H]1C [Compound 965],A (percent of modification of PIK3CA protein ≥75%)
–,< 100,C=CC(=O)N1CCn2nc(-c3nc(-c4ccc5c(c4)CN(C)C(=O)C5)c4ccsc4c3-c3c(F)cc(F)cc3OCCO)cc2[C@H]1C [Compound 973],A (percent of modification of PIK3CA protein ≥75%)
–,100 to 1000,C=CC(=O)N1CCn2nc(-c3nc(-c4ccc5c(c4)CCN(C)C5=O)c4ccsc4c3-c3c(F)cc(F)cc3OCCOC)cc2[C@@H]1C [Compound 974],D (percent of modification <25%)
–,< 100,C=CC(=O)N1CCn2nc(-c3nc(-c4ccc5c(c4)CN(C)C(=O)C5)c4ccsc4c3-c3c(F)cc(F)cc3OCCOC)cc2[C@@H]1C [Compound 975],D (percent of modification <25%)
–,< 100,C=CC(=O)N1CCc2nc(-c3nc(-c4ccc(N5CCN(C)CC5)nc4)c4ccsc4c3-c3c(F)cc(F)cc3OCCOC)sc2C1 [Compound 976],A (percent of modification of PIK3CA protein ≥75%)
–,100 to 1000,C=CC(=O)N1CCc2nc(-c3nc(-c4ccc5c(c4)CCNC5=O)c4ccsc4c3-c3c(F)cc(F)cc3OCCOC)sc2C1 [Compound 977],A (percent of modification of PIK3CA protein ≥75%)
–,< 100,C=CC(=O)N1CCc2nc(-c3nc(-c4ccc5nncn5c4)c4ccsc4c3-c3c(F)cc(F)cc3OCCOC)sc2C1 [Compound 978],A (percent of modification of PIK3CA protein ≥75%)
–,< 100,C=CC(=O)N1CCn2nc(-c3nc(-c4ccc5ncc(=O)n(C)c5c4)c4ccsc4c3-c3c(F)cc(F)cc3OCCO)cc2[C@H]1C [Compound 979],A (percent of modification of PIK3CA protein ≥75%)
–,< 100,C=CC(=O)N1CCn2nc(-c3nc(-c4ccc(=O)n(C(C)C)c4)c4ccsc4c3-c3c(F)cc(F)cc3OCCO)cc2[C@H]1C [Compound 980],A (percent of modification of PIK3CA protein ≥75%)
–,< 100,C=CC(=O)N1CCn2nc(-c3nc(-c4ccc(=O)n(CC(F)F)c4)c4ccsc4c3-c3c(F)cc(F)cc3OCCO)cc2C1C (stereo not shown) [Compound 981],A (percent of modification of PIK3CA protein ≥75%)
–,< 100,C=CC(=O)N1CCn2nc(-c3nc(-c4ccc(N(C)C)nc4)c4ccsc4c3-c3c(F)cc(F)cc3OCCOC)cc2C1C (stereo not shown) [Compound 982],A (percent of modification of PIK3CA protein ≥75%)
–,< 100,C=CC(=O)N1CCn2nc(-c3nc(-c4ccc5c(c4)CN(C)C(=O)C5)c4ccsc4c3-c3c(F)cc(F)cc3OCCOC)cc2C1C (stereo not shown) [Compound 983],A (percent of modification of PIK3CA protein ≥75%)
–,< 100,C=CC(=O)N1CCn2nc(-c3nc(-c4cnn(C)c(=O)c4)c4ccsc4c3-c3c(F)cc(F)cc3OCCOC)cc2C1C (stereo not shown) [Compound 984],A (percent of modification of PIK3CA protein ≥75%)
–,< 100,C=CC(=O)N1CCn2nc(-c3nc(-c4ccn5ncnc5c4)c4ccsc4c3-c3c(F)cc(F)cc3OCCOC)cc2C1C (stereo not shown) [Compound 985],A (percent of modification of PIK3CA protein ≥75%)
–,< 100,C=CC(=O)N1CCn2nc(-c3nc(-c4ccn(C)c(=O)c4)c4ccsc4c3-c3c(F)cc(F)cc3OCCOC)cc2C1C (stereo not shown) [Compound 986],A (percent of modification of PIK3CA protein ≥75%)
–,< 100,C=CC(=O)N1CCn2nc(-c3nc(-c4ccc(=O)n(C(C)C)c4)c4ccsc4c3-c3c(F)cc(F)cc3OCCOC)cc2C1C (stereo not shown) [Compound 987],A (percent of modification of PIK3CA protein ≥75%)
–,< 100,C=CC(=O)N1CCn2nc(-c3nc(-c4ccc(=O)n(CC(F)F)c4)c4ccsc4c3-c3c(F)cc(F)cc3OCCOC)cc2C1C (stereo not shown) [Compound 988],A (percent of modification of PIK3CA protein ≥75%)
–,< 100,C=CC(=O)N1CCn2nc(-c3nc(-c4ccc5c(c4)NC(=O)C5)c4ccsc4c3-c3c(F)cc(F)cc3OCCOC)cc2C1C (stereo not shown) [Compound 989],A (percent of modification of PIK3CA protein ≥75%)
–,< 100,C=CC(=O)N1CCn2nc(-c3nc(-c4ccc(CN(C)C)cc4)c4ccsc4c3-c3c(F)cc(F)cc3OCCOC)cc2C1C (stereo not shown) [Compound 991],A (percent of modification of PIK3CA protein ≥75%)
–,< 100,C=CC(=O)N1CCn2nc(-c3nc(-c4cnn(C5CN(C)C5)c4)c4ccsc4c3-c3c(F)cc(F)cc3OCC(C)O)cc2C1C (stereo not shown) [Compound 992],A (percent of modification of PIK3CA protein ≥75%)
–,< 100,C=CC(=O)N1CCn2nc(-c3nc(-c4ccc(OCCN(C)C)cc4)c4ccsc4c3-c3c(F)cc(F)cc3OCCOC)cc2C1C (stereo not shown) [Compound 993],A (percent of modification of PIK3CA protein ≥75%)
–,100 to 1000,C=CC(=O)N1CCn2nc(-c3nc(-c4ccc5c(c4)CCN(C)CC5)c4ccsc4c3-c3c(F)cc(F)cc3OCCOC)cc2C1C (stereo not shown) [Compound 994],D (percent of modification <25%)
–,< 100,C=CC(=O)N1CCn2nc(-c3nc(-c4ccc5c(c4)CCN(C)C5=O)c4ccsc4c3-c3c(F)cc(F)cc3OCCO)cc2C1C (stereo not shown) [Compound 995],A (percent of modification of PIK3CA protein ≥75%)
